Laboratory results: ChEMBL document CHEMBL5523740, “Discovery of Potent and Selective c-Met Degraders for Hepatocellular Carcinoma Treatment” (J Med Chem, 2024)
The source made the active and inactive calls. The rule behind the calls is not given here.

Columns and labels:
MHCC97H [1] = experiment: Induction of cell cycle arrest in human MHCC97H cells assessed as accumulation of cells at G1 phase at 100 nM incubated for 24 hrs by PI staining based flow cytometry analysis (reference value: 70.4%); assay type: functional
[2] = Toxicity in BALB/c mouse xenografted with human MHCC97H cells assessed as lung lesions at 10 mg/kg, ip qd for 22 days and measured every 2 days by H and E staining based assay; assay type: organism-based; settings: in vivo, 528 h, time 22 day
[3] = Toxicity in BALB/c mouse xenografted with human MHCC97H cells assessed as spleen lesions at 20 mg/kg, po qd for 22 days and measured every 2 days by H and E staining based assay; assay type: organism-based; settings: in vivo, 528 h, time 22 day
MHCC97H [4] = experiment: Induction of apoptosis in human MHCC97H cells assessed as necrotic cells incubated for 24 hrs by Annexin-V-FITC/PI staining based flow cytometry analysis; assay type: functional, cell-based; settings: dose 3-100 nM
MHCC97H [5] = experiment: Antitumor activity against human MHCC97H cells xenografted in BALB/c mouse assessed as tumor growth inhibition at 20 mg/kg, po qd for 22 days and measured every 2 days by Ki67 staining based analysis; assay type: functional, organism-based; settings: time 22.0 day
[6] = Toxicity in BALB/c mouse xenografted with human MHCC97H cells assessed as reduction in body weight at 10 mg/kg, ip qd for 22 days and measured every 2 days; assay type: organism-based; settings: in vivo, 528 h, time 22 day
MHCC97H [7] = experiment: Induction of apoptosis in human MHCC97H cells assessed as late apoptotic cells at 3 nM incubated for 24 hrs by Annexin-V-FITC/PI staining based flow cytometry analysis (reference value: 4.24%); assay type: functional
[8] = AUC(0 to infinity) in Sprague-Dawley rat at 10 mg/kg, po by LC-MS/MS method; assay type: ADME, organism-based; settings: in vivo
[9] = Clearance in Sprague-Dawley rat at 10 mg/kg, po by LC-MS/MS method; assay type: ADME, organism-based; settings: in vivo
[10] = target: T1, Hepatocyte growth factor receptor (Homo sapiens, UniProt P08581); experiment: Induction of c-Met degradation in human MHCC97H cells at 500 nM after 3 to 24 hrs by Western blotting analysis; assay type: cell-based; settings: time 3-24 hrs
[11] = Oral bioavailability in Sprague-Dawley rat at 10 mg/kg by LC-MS/MS method; assay type: ADME, organism-based; settings: in vivo
Mus musculus [12] = experiment: Downregulation of phosphorylated STAT3 level in BALB/c mouse tumor xenografted with human MHCC97H cells at 20 mg/kg, po qd for 22 days and measured every 2 days by Western blotting analysis; assay type: functional, organism-based; settings: time 22.0 day
MHCC97H [13] = experiment: Induction of cell cycle arrest in human MHCC97H cells assessed as accumulation of cells at G2 phase at 10 nM incubated for 24 hrs by PI staining based flow cytometry analysis (reference value: 19.1%); assay type: functional
Mus musculus [14] = experiment: Downregulation of phosphorylated c-Met level in BALB/c mouse tumor xenografted with human MHCC97H cells at 20 mg/kg, po qd for 22 days and measured every 2 days by Western blotting analysis; assay type: functional, organism-based; settings: time 22.0 day
[15] = target: T1, Hepatocyte growth factor receptor; experiment: Induction of c-Met degradation in human Huh-7 cells incubated for 24 hrs by Western blotting analysis; assay type: cell-based; settings: dose 63-100 nM
Mus musculus [16] = experiment: Downregulation of phosphorylated c-Met level in BALB/c mouse tumor xenografted with human MHCC97H cells at 10 mg/kg, ip qd for 22 days and measured every 2 days by Western blotting analysis; assay type: functional, organism-based; settings: time 22.0 day
[17] = Toxicity in BALB/c mouse xenografted with human MHCC97H cells assessed as lung lesions at 20 mg/kg, po qd for 22 days and measured every 2 days by H and E staining based assay; assay type: organism-based; settings: in vivo, 528 h, time 22 day
[18] = Toxicity in BALB/c mouse xenografted with human MHCC97H cells assessed as spleen lesions at 10 mg/kg, ip qd for 22 days and measured every 2 days by H and E staining based assay; assay type: organism-based; settings: in vivo, 528 h, time 22 day
MHCC97H [19] = experiment: Induction of cell cycle arrest in human MHCC97H cells assessed as accumulation of cells at G1 phase at 3 nM incubated for 24 hrs by PI staining based flow cytometry analysis (reference value: 70.4%); assay type: functional
MHCC97H [20] = experiment: Induction of apoptosis in human MHCC97H cells assessed as necrotic cells at 100 nM incubated for 24 hrs by Annexin-V-FITC/PI staining based flow cytometry analysis (reference value: 1.77%); assay type: functional
[21] = Cmax in Sprague-Dawley rat at 1 mg/kg, iv by LC-MS/MS method; assay type: ADME, organism-based; settings: in vivo
[22] = AUC(0 to infinity) in Sprague-Dawley rat at 1 mg/kg, iv by LC-MS/MS method; assay type: ADME, organism-based; settings: in vivo
[23] = Toxicity in BALB/c mouse xenografted with human MHCC97H cells assessed as kidney lesions at 20 mg/kg, po qd for 22 days and measured every 2 days by H and E staining based assay; assay type: organism-based; settings: in vivo, 528 h, time 22 day
[24] = Toxicity in BALB/c mouse xenografted with human MHCC97H cells assessed as reduction in body weight at 20 mg/kg, po qd for 22 days and measured every 2 days; assay type: organism-based; settings: in vivo, 528 h, time 22 day
BaF3 [25] = experiment: Antiproliferative activity against mouse BaF3 cells harboring TPR-MET Y1230H mutant fusion protein incubated for 72 hrs by CellTiter-Glo reagent based assay; assay type: functional, cell-based; settings: BaF3, 72 h
[26] = Toxicity in BALB/c mouse xenografted with human MHCC97H cells assessed as liver lesions at 10 mg/kg, ip qd for 22 days and measured every 2 days by H and E staining based assay; assay type: organism-based; settings: in vivo, 528 h, time 22 day
MHCC97H [27] = experiment: Inhibition of colony formation in human MHCC97H cells at 3 to 100 nM incubated for 2 weeks by crystal violet staining based assay; assay type: functional, cell-based; settings: dose 3-100 nM
MHCC97H [28] = experiment: Induction of apoptosis in human MHCC97H cells assessed as necrotic cells at 3 nM incubated for 24 hrs by Annexin-V-FITC/PI staining based flow cytometry analysis (reference value: 1.77%); assay type: functional
MHCC97H [29] = experiment: Induction of apoptosis in human MHCC97H cells assessed as early apoptotic cells at 3 nM incubated for 24 hrs by Annexin-V-FITC/PI staining based flow cytometry analysis (reference value: 7.70%); assay type: functional
[30] = target: T1, Hepatocyte growth factor receptor; experiment: Induction of c-Met degradation in human MHCC97H cells incubated for 24 hrs by Western blotting analysis; assay type: cell-based
[31] = Half-life in Sprague-Dawley rat at 1 mg/kg, iv by LC-MS/MS method; assay type: ADME, organism-based; settings: in vivo
BaF3 [32] = experiment: Antiproliferative activity against mouse BaF3 cells harboring TPR-MET fusion protein incubated for 72 hrs by CellTiter-Glo reagent based assay; assay type: functional, cell-based; settings: BaF3, 72 h
[33] = Toxicity in BALB/c mouse xenografted with human MHCC97H cells assessed as heart lesions at 10 mg/kg, ip qd for 22 days and measured every 2 days by H and E staining based assay; assay type: organism-based; settings: in vivo, 528 h, time 22 day
MHCC97H [34] = experiment: Induction of cell cycle arrest in human MHCC97H cells assessed as accumulation of cells at G1 phase at 10 nM incubated for 24 hrs by PI staining based flow cytometry analysis (reference value: 70.4%); assay type: functional
Mus musculus [35] = experiment: Downregulation of phosphorylated STAT3 level in BALB/c mouse tumor xenografted with human MHCC97H cells at 10 mg/kg, ip qd for 22 days and measured every 2 days by Western blotting analysis; assay type: functional, organism-based; settings: time 22.0 day
MHCC97H [36] = experiment: Induction of apoptosis in human MHCC97H cells assessed as viable cells at 10 nM incubated for 24 hrs by Annexin-V-FITC/PI staining based flow cytometry analysis (reference value: 86.3%); assay type: functional; settings: read-out: Activity

T1 sequence (P08581 whole entry): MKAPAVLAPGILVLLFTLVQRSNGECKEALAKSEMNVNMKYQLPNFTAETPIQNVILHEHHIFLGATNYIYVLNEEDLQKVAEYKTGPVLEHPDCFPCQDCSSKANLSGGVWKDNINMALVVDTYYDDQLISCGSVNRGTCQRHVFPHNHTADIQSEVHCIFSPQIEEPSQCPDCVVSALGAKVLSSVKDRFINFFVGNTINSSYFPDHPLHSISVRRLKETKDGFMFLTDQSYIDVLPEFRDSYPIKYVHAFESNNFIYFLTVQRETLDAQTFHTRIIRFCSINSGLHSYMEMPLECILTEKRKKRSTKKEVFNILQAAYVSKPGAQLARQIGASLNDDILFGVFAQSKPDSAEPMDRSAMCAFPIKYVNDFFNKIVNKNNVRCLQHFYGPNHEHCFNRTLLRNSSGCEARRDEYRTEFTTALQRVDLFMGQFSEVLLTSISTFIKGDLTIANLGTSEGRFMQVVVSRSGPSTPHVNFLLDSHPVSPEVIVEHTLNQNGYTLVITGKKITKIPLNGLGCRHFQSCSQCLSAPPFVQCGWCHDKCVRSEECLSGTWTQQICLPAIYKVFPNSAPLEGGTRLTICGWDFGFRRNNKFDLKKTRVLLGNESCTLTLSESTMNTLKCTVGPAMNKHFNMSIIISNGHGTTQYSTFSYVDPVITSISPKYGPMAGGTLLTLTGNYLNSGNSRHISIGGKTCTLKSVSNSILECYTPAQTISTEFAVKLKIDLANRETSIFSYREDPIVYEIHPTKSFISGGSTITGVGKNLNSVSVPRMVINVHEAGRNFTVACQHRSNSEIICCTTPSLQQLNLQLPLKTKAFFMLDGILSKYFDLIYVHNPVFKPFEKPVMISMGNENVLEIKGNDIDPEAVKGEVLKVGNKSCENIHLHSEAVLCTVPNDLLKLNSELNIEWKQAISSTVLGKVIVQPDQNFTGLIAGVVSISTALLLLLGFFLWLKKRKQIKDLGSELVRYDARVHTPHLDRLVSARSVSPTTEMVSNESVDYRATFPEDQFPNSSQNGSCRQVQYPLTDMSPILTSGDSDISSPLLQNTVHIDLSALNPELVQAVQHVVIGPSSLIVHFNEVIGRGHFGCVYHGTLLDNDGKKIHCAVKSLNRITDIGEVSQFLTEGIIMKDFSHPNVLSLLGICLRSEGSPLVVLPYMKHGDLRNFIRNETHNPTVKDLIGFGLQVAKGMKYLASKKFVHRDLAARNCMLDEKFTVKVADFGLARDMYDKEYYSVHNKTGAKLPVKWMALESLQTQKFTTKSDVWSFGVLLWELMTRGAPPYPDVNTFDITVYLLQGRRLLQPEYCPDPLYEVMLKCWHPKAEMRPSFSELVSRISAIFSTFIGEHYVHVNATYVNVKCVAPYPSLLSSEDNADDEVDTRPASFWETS

## N#Cc1cccc(-c2ccc(=O)n(Cc3cccc(-c4ncc(OCC5CCN(CCCCCC(=O)NCC67CC8CC(CC(C8)C6)C7)CC5)cn4)c3)n2)c1
MHCC97H [1]
  Activity: 79.1%
[2]
  Activity: Non-Toxic
[3]
  Activity: Non-Toxic
MHCC97H [4]
  Activity: Dose-Dependent Effect
MHCC97H [5]
  Activity: Active
[6]
  Activity: Non-Toxic
MHCC97H [7]
  Activity: 3.76%
[8]
  AUC(0-inf): 74.5 ng·h/mL
[9]
  CL/F: 199 L/h/kg
[10]
  Activity: Active
[11]
  bioavailability: 0.8%
Mus musculus [12]
  Activity: Active
MHCC97H [13]
  Activity: 14.3%
Mus musculus [14]
  Activity: Active
[15]
  Activity: Dose-Dependent Effect
Mus musculus [16]
  Activity: Active
[17]
  Activity: Non-Toxic
[18]
  Activity: Non-Toxic
MHCC97H [19]
  Activity: 74.6%
MHCC97H [20]
  Activity: 1.35%
[21]
  Cmax: 1630 ng/mL
[22]
  AUC(0-inf): 994 ng·h/mL
[23]
  Activity: Non-Toxic
[24]
  Activity: Non-Toxic
BaF3 [25]
  IC50: 0.379 µM
[26]
  Activity: Non-Toxic
MHCC97H [27]
  inhibition: Active
MHCC97H [28]
  Activity: 0.74%
MHCC97H [29]
  Activity: 16%
[30]
  DC50: 0.226 µM
[30]; dose 63-100 nM
  Activity: Dose-Dependent Effect
[31]
  half-life: 2.5 h
BaF3 [32]
  IC50: 0.0062 µM
[33]
  Activity: Non-Toxic
MHCC97H [34]
  Activity: 77.6%
Mus musculus [35]
  Activity: Active
MHCC97H [36]
  viability at 0.01 µM: 72.7%
